Assay results taken from the NIST ThermoML archive (doi:10.1021/je700026d).

Assay: xn = mol fraction of the nth substance listed
Settings: Liquid; for speed of sound: 100 kPa, Linear variable-path acoustic interferometer; for viscosity: Capillary tube (Ostwald / Ubbelohde) method; for mass density: Pycnometric method

NC=O [formamide] + COCCO
298.15 K
Settings	speed of sound [m/s]
x1 = 0.1581	1353.6
x1 = 0.2969	1373.7
x1 = 0.4199	1397.5
x1 = 0.5297	1423.8
x1 = 0.6282	1451.1
x1 = 0.7171	1478.3
x1 = 0.7977	1506
x1 = 0.8711	1533.9
x1 = 0.9383	1564.3
x1 = 1	1591.3

101.3 kPa
Settings	mass density, 298.15 K [kg/m3]	mass density, 308.15 K [kg/m3]	mass density, 318.15 K [kg/m3]	viscosity, 298.15 K [mPa·s]	viscosity, 308.15 K [mPa·s]	viscosity, 318.15 K [mPa·s]
x1 = 0.1581	977	969.1	963.5	1.912	1.515	1.225
x1 = 0.2969	994.2	986.2	980.3	2.291	1.759	1.394
x1 = 0.4199	1010.9	1002.8	996.5	2.659	1.997	1.561
x1 = 0.5297	1027.6	1019.4	1012.8	2.963	2.206	1.709
x1 = 0.6282	1044.1	1035.9	1029.1	3.173	2.367	1.831
x1 = 0.7171	1060.2	1052.3	1045.3	3.331	2.485	1.929
x1 = 0.7977	1076.7	1068.7	1061.5	3.395	2.541	1.978
x1 = 0.8711	1093.8	1085.7	1078.1	3.399	2.562	2.016
x1 = 0.9383	1111.1	1102.9	1094.6	3.348	2.55	2.003
x1 = 1	1129.2	1120.5	1111.1	3.302	2.542	2.001

COCCOC [1,2-dimethoxyethane] + NC=O
298.15 K
Settings	speed of sound [m/s]
x2 = 0	1146.2
x2 = 0.1819	1200.3
x2 = 0.3334	1254.3
x2 = 0.4616	1306.2
x2 = 0.5715	1355
x2 = 0.6668	1399.9
x2 = 0.7501	1441.9
x2 = 0.8236	1480.5
x2 = 0.8889	1518.5
x2 = 0.9474	1556.1

Settings	mass density, 298.15 K [kg/m3]	mass density, 308.15 K [kg/m3]	mass density, 318.15 K [kg/m3]	viscosity, 298.15 K [mPa·s]	viscosity, 308.15 K [mPa·s]	viscosity, 318.15 K [mPa·s]
101 kPa, x2 = 0	861.5	850.7	839.6	–	–	–
101 kPa, x2 = 0.1819	893.1	883.5	874.6	–	–	–
101 kPa, x2 = 0.3334	920.1	910.4	902.6	–	–	–
101 kPa, x2 = 0.4616	946	936.3	929.4	–	–	–
101 kPa, x2 = 0.5715	971.8	962.3	955.9	–	–	–
101 kPa, x2 = 0.6668	997.3	988.5	982.2	–	–	–
101 kPa, x2 = 0.7501	1022.2	1013.6	1007.5	–	–	–
101 kPa, x2 = 0.8236	1048.3	1039.4	1033.3	–	–	–
101 kPa, x2 = 0.8889	1073.7	1065.7	1059.2	–	–	–
101 kPa, x2 = 0.9474	1100.3	1092.7	1085.5	–	–	–
101.3 kPa, x2 = 0	–	–	–	0.409	0.366	0.33
101.3 kPa, x2 = 0.1819	–	–	–	0.603	0.522	0.459
101.3 kPa, x2 = 0.3334	–	–	–	0.848	0.713	0.609
101.3 kPa, x2 = 0.4616	–	–	–	1.164	0.952	0.785
101.3 kPa, x2 = 0.5715	–	–	–	1.545	1.243	0.994
101.3 kPa, x2 = 0.6668	–	–	–	1.925	1.536	1.218
101.3 kPa, x2 = 0.7501	–	–	–	2.296	1.806	1.427
101.3 kPa, x2 = 0.8236	–	–	–	2.627	2.045	1.614
101.3 kPa, x2 = 0.8889	–	–	–	2.899	2.243	1.775
101.3 kPa, x2 = 0.9474	–	–	–	3.12	2.408	1.903
